Key:
HDAC3/NcoR2 complex = HDAC3/NcoR2 complex (Homo sapiens, UniProt O15379); assay: HDAC3 isoform selectivity assay; type: biochemical; details: Table 2 isoform selectivity; read-out: HDAC Inhibition (IC50 uM) isoform 3
Protocol: (§1) The HDAC1, 2, 4, 5, 6, 7, 8, 9, 10, and 11 assays used isolated recombinant human protein; HDAC3/NcoR2 complex was used for the HDAC3 assay. […] Acetyl-Lys(trifluoroacetyl)-AMC substrate was used for HDAC4, 5, 7, and 9 assays. […] IC50 values were extracted by curve-fitting the dose/response slopes. Assays were performed in duplicate and IC50 values are an average of data from both experiments.

HDAC4 = HDAC4 (Homo sapiens, UniProt P56524); assay: HDAC4 isoform selectivity assay; type: biochemical; details: Table 2 isoform selectivity; read-out: HDAC Inhibition (IC50 uM) isoform 4
Protocol: (§2) The HDAC1, 2, 4, 5, 6, 7, 8, 9, 10, and 11 assays used isolated recombinant human protein; HDAC3/NcoR2 complex was used for the HDAC3 assay. Substrate for HDAC1, 2, 3, 6, 10, and 11 assays is a fluorogenic peptide from p53 residues 379-382 (RHKKAc); substrate for HDAC8 is fluorogenic diacyl peptide based on residues 379-382 of p53 (RHKAcKAc). Acetyl-Lys(trifluoroacetyl)-AMC substrate was used for HDAC4, 5, 7, and 9 assays. Compounds were dissolved in DMSO and tested in 10-dose IC50 mode with 3-fold serial dilution starting at 30 μM. Control Compound Trichostatin A (TSA) was tested in a 10-dose IC50 with 3-fold serial dilution starting at 5 μM. IC50 values were extracted by curve-fitting the dose/response slopes. Assays were performed in duplicate and IC50 values are an average of data from both experiments.

HDAC10 = target: T1, HDAC10 (Homo sapiens, UniProt Q969S8); assay: HDAC10 isoform selectivity assay; type: biochemical; details: Table 2 isoform selectivity; read-out: HDAC Inhibition (IC50 uM) isoform 10
T1 sequence (Q969S8 1-669): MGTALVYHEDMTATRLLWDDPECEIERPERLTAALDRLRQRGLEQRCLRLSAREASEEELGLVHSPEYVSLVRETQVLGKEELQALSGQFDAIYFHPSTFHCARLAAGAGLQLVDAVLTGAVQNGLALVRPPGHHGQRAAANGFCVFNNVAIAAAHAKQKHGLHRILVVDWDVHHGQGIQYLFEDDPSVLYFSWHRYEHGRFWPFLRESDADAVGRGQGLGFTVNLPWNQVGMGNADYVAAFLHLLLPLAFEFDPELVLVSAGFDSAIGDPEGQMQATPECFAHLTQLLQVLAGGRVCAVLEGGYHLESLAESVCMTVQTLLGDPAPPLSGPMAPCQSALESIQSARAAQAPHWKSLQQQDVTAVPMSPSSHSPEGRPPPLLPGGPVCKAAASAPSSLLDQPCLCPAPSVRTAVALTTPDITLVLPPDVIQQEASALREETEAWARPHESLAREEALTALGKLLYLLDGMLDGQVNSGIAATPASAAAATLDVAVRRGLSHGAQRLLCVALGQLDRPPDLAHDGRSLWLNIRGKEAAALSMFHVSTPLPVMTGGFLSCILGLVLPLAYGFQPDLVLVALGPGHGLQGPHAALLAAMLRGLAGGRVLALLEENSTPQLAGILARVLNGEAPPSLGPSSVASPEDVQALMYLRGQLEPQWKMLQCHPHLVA
Protocol: as §2

HDAC5 = HDAC5 (Homo sapiens, UniProt Q9UQL6); assay: HDAC5 isoform selectivity assay; type: biochemical; details: Table 2 isoform selectivity; read-out: HDAC Inhibition (IC50 uM) isoform 5
Protocol: as §2

HDAC11 = target: T2, HDAC11 (Homo sapiens, UniProt Q96DB2); assay: HDAC11 isoform selectivity assay; type: biochemical; details: Table 2 isoform selectivity; read-out: HDAC Inhibition (IC50 uM) isoform 11
T2 sequence (Q96DB2 1-347): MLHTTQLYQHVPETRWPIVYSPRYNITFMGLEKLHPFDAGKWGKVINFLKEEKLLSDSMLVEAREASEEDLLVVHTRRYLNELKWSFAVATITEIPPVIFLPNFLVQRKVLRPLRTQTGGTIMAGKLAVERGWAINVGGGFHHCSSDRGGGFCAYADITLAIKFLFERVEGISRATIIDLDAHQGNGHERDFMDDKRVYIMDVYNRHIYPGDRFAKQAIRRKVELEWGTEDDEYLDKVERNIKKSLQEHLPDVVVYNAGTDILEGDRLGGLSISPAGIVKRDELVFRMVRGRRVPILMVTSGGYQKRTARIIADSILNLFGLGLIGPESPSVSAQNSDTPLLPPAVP
Protocol: as §1

HDAC9 = HDAC9 (Homo sapiens, UniProt Q9UKV0); assay: HDAC9 isoform selectivity assay; type: biochemical; details: Table 2 isoform selectivity; read-out: HDAC Inhibition (IC50 uM) isoform 9
Protocol: as §2

HDAC8 = target: T3, HDAC8 (Homo sapiens, UniProt Q9BY41); assay: HDAC8 isoform selectivity assay; type: biochemical; details: Table 2 isoform selectivity; read-out: HDAC Inhibition (IC50 uM) isoform 8
T3 sequence (Q9BY41 1-377): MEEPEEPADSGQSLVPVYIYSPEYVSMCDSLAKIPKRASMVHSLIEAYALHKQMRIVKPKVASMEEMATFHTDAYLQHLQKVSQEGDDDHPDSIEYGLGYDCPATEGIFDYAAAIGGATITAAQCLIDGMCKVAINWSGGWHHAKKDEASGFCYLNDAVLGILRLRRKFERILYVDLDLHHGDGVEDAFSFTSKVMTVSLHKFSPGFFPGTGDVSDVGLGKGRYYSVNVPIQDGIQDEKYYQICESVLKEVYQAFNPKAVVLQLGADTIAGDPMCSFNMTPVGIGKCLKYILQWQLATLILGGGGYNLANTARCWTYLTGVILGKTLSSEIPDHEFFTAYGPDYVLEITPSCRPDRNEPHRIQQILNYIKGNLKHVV
Protocol: as §2

acetylated α-tubulin = assay: Tubulin acetylation in N2a cells (western blot); type: cell-based, mouse; details: normalized to the values of DMSO
Protocol: Cells were collected using RIPA buffer. WB was analyzed using Image QuantTL and the ratio between the intensity of the acetylated tubulin and the tubulin bands was calculated. These ratios were subsequently normalized to the values of DMSO (fold increase). For each sample 50 μg protein was loaded on a 12% SDS-PAGE gel and blotted on a PVDF membrane. The integrated density of acetylated α-tubulin and α-tubulin was measured on WB using Image J software. Furthermore the ratio between the integrated density of acetylated α-tubulin and α-tubulin was calculated.

HDAC2 = HDAC2 (Homo sapiens, UniProt Q92769); assay: HDAC2 isoform selectivity assay; type: biochemical; details: Table 2 isoform selectivity; read-out: HDAC Inhibition (IC50 uM) isoform 2
Protocol: as §2

[1] = In vitro metabolic stability in human liver microsomes; type: in vitro ADME; details: human liver microsomes after 60 min at 10 uM

HDAC5, sequence (Q9UQL6 whole entry, canonical isoform): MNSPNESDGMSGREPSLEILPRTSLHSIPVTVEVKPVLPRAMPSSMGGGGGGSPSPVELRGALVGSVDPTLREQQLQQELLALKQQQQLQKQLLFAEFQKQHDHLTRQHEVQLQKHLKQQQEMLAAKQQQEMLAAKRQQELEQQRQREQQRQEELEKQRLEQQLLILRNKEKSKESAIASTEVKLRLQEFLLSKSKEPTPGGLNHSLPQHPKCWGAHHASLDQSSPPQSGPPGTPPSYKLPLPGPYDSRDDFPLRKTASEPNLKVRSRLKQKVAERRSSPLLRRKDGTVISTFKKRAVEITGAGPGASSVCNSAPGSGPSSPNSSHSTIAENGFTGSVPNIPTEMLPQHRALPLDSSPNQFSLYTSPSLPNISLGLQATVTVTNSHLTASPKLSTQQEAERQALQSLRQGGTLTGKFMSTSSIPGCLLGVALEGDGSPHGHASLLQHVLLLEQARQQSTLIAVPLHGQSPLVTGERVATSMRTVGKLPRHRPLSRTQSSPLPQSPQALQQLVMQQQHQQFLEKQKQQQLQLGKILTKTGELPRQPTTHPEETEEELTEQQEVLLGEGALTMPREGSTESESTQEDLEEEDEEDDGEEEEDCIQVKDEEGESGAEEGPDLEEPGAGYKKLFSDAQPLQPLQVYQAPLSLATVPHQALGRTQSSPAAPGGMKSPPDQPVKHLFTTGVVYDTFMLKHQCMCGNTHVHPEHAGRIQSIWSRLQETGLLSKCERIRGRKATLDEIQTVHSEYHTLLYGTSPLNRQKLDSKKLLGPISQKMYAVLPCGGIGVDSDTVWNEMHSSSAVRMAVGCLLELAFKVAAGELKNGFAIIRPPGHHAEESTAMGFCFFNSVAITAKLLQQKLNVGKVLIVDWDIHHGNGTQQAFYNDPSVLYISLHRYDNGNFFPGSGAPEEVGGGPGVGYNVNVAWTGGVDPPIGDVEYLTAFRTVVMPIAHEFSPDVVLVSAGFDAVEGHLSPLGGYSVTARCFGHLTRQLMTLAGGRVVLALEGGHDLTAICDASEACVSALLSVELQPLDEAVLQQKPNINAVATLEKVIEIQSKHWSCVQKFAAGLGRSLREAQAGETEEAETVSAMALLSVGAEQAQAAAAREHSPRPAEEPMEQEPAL
HDAC4, sequence (P56524 whole entry, the tested form may be a part, canonical isoform): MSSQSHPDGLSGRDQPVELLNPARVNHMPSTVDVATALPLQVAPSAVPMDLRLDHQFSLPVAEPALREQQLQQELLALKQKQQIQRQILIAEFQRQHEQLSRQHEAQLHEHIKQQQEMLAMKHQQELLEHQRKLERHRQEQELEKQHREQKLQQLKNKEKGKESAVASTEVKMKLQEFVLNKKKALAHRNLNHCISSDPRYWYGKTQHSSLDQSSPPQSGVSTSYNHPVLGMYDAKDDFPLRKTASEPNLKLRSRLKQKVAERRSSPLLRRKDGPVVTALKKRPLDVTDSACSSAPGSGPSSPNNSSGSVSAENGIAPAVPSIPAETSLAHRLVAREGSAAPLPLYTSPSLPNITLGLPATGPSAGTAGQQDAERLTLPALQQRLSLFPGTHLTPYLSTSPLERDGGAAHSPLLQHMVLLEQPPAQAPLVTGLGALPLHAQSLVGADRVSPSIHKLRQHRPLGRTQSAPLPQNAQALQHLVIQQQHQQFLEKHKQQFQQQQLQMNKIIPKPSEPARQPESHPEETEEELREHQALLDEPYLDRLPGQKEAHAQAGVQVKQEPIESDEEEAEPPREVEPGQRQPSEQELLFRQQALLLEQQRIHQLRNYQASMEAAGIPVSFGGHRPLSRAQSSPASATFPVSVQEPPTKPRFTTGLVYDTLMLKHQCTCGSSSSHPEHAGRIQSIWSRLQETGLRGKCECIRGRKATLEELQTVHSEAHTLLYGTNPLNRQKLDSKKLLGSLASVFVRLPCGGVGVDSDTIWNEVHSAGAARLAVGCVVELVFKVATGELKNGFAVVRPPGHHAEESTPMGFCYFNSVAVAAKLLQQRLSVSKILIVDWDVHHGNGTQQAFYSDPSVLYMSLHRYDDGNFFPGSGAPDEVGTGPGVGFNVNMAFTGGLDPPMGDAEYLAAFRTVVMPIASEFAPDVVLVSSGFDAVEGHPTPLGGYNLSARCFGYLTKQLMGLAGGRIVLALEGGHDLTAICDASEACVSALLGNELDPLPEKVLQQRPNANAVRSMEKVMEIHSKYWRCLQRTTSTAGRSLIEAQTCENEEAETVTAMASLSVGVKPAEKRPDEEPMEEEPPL
HDAC9, sequence (Q9UKV0 whole entry, canonical isoform): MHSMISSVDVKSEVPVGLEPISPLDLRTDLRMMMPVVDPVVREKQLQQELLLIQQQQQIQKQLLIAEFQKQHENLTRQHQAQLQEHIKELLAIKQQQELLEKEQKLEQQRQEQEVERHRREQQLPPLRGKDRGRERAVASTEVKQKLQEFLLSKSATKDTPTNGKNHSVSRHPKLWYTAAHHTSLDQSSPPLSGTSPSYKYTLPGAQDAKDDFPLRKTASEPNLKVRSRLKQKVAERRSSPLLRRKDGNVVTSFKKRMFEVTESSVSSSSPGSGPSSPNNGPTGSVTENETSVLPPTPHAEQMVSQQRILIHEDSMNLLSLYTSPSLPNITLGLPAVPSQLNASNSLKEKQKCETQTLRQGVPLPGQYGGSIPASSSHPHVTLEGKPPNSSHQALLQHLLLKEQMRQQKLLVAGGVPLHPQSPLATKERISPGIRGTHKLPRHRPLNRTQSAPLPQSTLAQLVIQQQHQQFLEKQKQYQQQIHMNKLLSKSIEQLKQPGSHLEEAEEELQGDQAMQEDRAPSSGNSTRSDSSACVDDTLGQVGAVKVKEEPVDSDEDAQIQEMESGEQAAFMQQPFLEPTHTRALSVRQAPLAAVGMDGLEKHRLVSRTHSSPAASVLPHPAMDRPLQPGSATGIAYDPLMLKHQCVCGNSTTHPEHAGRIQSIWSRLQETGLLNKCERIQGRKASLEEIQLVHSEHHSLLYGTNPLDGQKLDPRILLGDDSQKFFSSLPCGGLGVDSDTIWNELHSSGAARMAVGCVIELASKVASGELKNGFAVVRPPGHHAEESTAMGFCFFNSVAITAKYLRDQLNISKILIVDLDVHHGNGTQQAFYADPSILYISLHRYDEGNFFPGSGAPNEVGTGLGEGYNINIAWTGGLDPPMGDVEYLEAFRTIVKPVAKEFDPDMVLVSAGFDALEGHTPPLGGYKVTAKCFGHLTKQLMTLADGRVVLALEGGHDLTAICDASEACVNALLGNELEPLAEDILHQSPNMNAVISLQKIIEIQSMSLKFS
HDAC3/NcoR2 complex, sequence (O15379 whole entry, canonical isoform): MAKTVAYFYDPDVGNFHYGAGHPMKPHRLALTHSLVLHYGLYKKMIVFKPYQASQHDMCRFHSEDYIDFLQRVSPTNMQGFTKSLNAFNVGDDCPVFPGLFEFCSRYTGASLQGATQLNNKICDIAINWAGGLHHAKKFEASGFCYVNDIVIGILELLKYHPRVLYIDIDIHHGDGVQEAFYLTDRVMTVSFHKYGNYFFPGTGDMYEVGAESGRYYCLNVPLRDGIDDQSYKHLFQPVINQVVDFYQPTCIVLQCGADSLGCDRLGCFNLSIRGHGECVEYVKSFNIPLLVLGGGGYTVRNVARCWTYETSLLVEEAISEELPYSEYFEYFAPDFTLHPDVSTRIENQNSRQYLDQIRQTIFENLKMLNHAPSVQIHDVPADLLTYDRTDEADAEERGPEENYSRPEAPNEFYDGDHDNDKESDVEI
HDAC3/NcoR2 complex, sequence (Q9Y618 395-489 partner limits assumed): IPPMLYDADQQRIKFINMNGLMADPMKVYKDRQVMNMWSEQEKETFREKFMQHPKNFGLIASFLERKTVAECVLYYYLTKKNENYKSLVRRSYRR
HDAC2, sequence (Q92769 whole entry, canonical isoform): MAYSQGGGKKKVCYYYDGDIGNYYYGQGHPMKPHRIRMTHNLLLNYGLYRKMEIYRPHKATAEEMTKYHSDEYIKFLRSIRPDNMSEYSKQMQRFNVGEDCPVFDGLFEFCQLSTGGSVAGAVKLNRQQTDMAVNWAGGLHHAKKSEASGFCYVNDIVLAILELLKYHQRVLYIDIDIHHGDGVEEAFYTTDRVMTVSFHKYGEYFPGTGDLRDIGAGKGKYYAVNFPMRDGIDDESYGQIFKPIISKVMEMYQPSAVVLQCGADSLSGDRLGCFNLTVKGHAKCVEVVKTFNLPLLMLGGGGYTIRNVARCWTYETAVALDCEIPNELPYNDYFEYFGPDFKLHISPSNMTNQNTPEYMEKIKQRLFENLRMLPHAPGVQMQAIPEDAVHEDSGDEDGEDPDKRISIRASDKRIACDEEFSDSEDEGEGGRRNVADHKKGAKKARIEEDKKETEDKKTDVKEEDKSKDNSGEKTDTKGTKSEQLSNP

SMILES	IC50 (HDAC3/NcoR2 complex) [µM]	IC50 (HDAC4) [µM]	IC50 (HDAC10) [µM]	IC50 (HDAC5) [µM]	IC50 (HDAC11) [µM]	IC50 (HDAC9) [µM]	IC50 (HDAC8) [µM]	Ratio acetyl tub/tub fold increase (acetylated α-tubulin; 1.0 uM)	IC50 (HDAC2) [µM]	Microsomes stability (% remaining vsT0) [1] [% remaining vsT0]	Ratio acetyl tub/tub fold increase (acetylated α-tubulin; 0.01 uM)	Ratio acetyl tub/tub fold increase (acetylated α-tubulin; 0.1 uM)
O=C(NO)c1ccc(CN2CCc3ccc(Cl)cc32)cc1 [II-ING-6, 4-((6-Chloroindolin-1-yl)methyl)-N-hydroxybenzamide]	4.34	3.48	6.39	2.7	4.52	2.06	0.53	15.5 1.0 uM fold	6.24	88.6	–	–
Cn1c(NCc2ccc(C(=O)NO)cc2)nc2ccccc21 [II-ING-13, N-Hydroxy-4-(((1-methyl-1H-benzo[d]imidazol-2-yl)amino)methyl)benzamide]	3.51	2.42	5.95	1.96	2.11	1.1	0.17	–	5.2	–	2.0 (0.01 uM) fold	–
O=C(NO)c1ccc(CN2CCc3cc(Cl)ccc32)cc1 [II-ING-39, 4-((5-Chloroindolin-1-yl)methyl)-N-hydroxybenzamide]	–	–	–	–	–	–	–	–	–	81.7	–	1.69 (0.1 uM) fold
O=C(NO)c1ccc(CN2CCc3ccc(F)cc32)cc1 [II-ING-41, 4-((6-Fluoroindolin-1-yl)methyl)-N-hydroxybenzamide]	5.43	2.41	6.03	1.39	5.37	1	0.19	–	7.15	88.1	–	3.47 (0.1 uM) fold
O=C(NO)c1ccc(CN2CCc3cc(F)ccc32)cc1 [II-ING-42, 4-((5-Fluoroindolin-1-yl)methyl)-N-hydroxybenzamide]	–	–	–	–	–	–	–	–	–	–	–	2.46 (0.1 uM) fold
O=C(NO)c1ccc(CN2CCc3ccccc32)cc1 [II-ING-44, N-Hydroxy-4-(indolin-1-ylmethyl)benzamide]	–	–	–	–	–	–	–	–	–	–	–	2.68 (0.1 uM) fold
COc1ccc2c(c1)CCN2Cc1ccc(C(=O)NO)cc1 [II-ING-49, N-Hydroxy-4-((5-methoxyindolin-1-yl)methyl)benzamide]	–	–	–	–	–	–	–	–	–	–	–	2.61 (0.1 uM) fold

Reference: patent US10934255B2, “Nrf and HIF activators/HDAC inhibitors and therapeutic methods using the same” (THE BOARD OF TRUSTEES OF THE UNIVERSITY OF ILLINOIS, priority 2017, dated 2021)
